Test results reported in patent publication US11377429B2, “Benzothia(di)azepine compounds and their use as bile acid modulators” (Albireo AB, priority 2020, dated 2022).

Target: T1, Human LBAT (Homo sapiens, UniProt Q14973)
T1 construct: expressed in transfected cells; cultured under Geneticin selection
T1 sequence (Q14973 1-349): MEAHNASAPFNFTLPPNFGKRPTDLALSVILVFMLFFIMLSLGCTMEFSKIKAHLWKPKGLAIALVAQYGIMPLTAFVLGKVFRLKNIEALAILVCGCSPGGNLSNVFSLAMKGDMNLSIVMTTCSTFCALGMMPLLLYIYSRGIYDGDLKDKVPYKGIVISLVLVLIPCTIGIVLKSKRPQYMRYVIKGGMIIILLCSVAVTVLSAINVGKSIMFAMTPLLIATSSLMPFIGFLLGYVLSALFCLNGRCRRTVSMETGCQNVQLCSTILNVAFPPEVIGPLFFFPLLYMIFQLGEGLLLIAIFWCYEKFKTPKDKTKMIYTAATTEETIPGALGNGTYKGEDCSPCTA
Assay: LBAT (h/m) assay, human LBAT-overexpressing cells, 3H-taurocholic acid uptake
Assay type: cell-based
Conditions: read-out: hLBAT IC50
Method: LBAT (h/m) Assay Protocol
20,000 cells (Human or Mouse LBAT-overexpressing cells) were seeded in 96-wells plate (Corning CLS3809) in 100 μL MEM-alpha medium (Gibco 12571-063) supplemented with 10% FBS (Gibco 10438026) containing Geneticin (Gibco 10131-027) (1 mg/mL) and incubated at 37° C. in 5% CO2 for 24 hours. After incubation, media was decanted from the wells and cells were washed two times with 300 μL of basal MEM-alpha medium (FBS-free). After decanting basal MEM-alpha medium each time, plates were tapped against paper towel to ensure maximum removal of residual media. For human LBAT, incubation mix was prepared by adding test inhibitor dilutions (3-fold serial dilution in DMSO (Sigma D2650), 10 points) in MEM-alpha (without FBS) containing 0.3 μM 3H-taurocholic acid (ARC ART-1368) and 7.5 μM cold taurocholic acid (Sigma T4009) (maintaining 0.2% final DMSO concentration). For mouse LBAT, incubation mix was prepared by adding test inhibitor dilutions (3-fold serial dilution in DMSO, 10 points) in MEM-alpha (without FBS) containing 0.3 μM 3H-taurocholic acid and 25 μM cold taurocholic acid maintaining 0.2% final DMSO concentration). 50 μL of incubation mix containing test inhibitors was then added to the wells (in duplicate) and the plates were incubated for 20 minutes in a CO2 incubator at 37° C. After incubation, the reaction was stopped by keeping the plates on ice water mix for 2-3 minutes and then the incubation mix was aspirated completely from the wells. The wells were washed two times with 250 μL of chilled unlabeled 1 mM taurocholic acid dissolved in HEPES (Gibco 15630080)-buffered (10 mM) HBSS (Gibco 14175079) (pH 7.4). The plates were tapped against a paper towel after every wash to ensure maximum removal of blocking buffer.
100 μL of MicroScint-20 (PerkinElmer 6013621) was added to the wells and kept overnight at room temperature before reading the plates in TopCount NXT™ Microplate Scintillation and Luminescence Counter from PerkinElmer under 3H Test protocol (set at 120 seconds reading time per well, with normal plate orientation).
Preparation of Test Compound Dilutions
All test compounds were provided in powder form at room temperature. 10 mM DMSO stocks of the test compounds were prepared, aliquoted and stored at −20° C. From the 10 mM DMSO stock of the compounds, a 3-fold serial dilution in DMSO was prepared to get a total of 10 dilutions of the test compounds. 0.5 μL of this dilution in DMSO was added to 250 μL of FBS-free basal media containing 3H-taurocholic acid and cold taurocholic acid to prepare the incubation mixture.

**Q.** With `CCCCC1(C)CN(c2ccc(F)cc2)c2cc(SC)c(OCC(O)C(=O)O)cc2S(=O)(=O)C1` (single isomer, unassigned) [1, diastereomer 1] as the compound, how does the IC50 read?
**A.** 1640 nM
